Assay results taken from US12070501B1, “Topical ophthalmological compositions” (ADS Therapeutics LLC, priority 2021, dated 2024).

How the values were obtained:
[1] = system: New Zealand White rabbits
[2] = water-based formulation at neutral pH; cited from earlier work
[3] = Miscibility of semi-fluorinated alkane F6H8 with MCT or light liquid paraffin oil; type: physicochemical
Experimental: F6H8, a semi-fluorinated alkane was tested for miscibility with MCT with the ratio of F6H8 to MCT from 1:99 to 99:1. […] F6H8, a semi-fluorinated alkane was tested for miscibility with light liquid paraffin oil with the ratio of F6H8 to light liquid paraffin oil from 1:99 to 99:1.

Miscibility with MCT ([3]; ratio of F6H8 to MCT from 1:99 to 99:1)	Structure (SMILES)	Magnitude of pupil size changes versus atropine sulfate in aqueous solution ([1]; atropine in F6H8-based formulation, at comparable doses)	Dose response in pupil size dilation ([1]; from 0.01% to 0.05% atropine, Day 7 and Day 22)	Pupil size dilation ([1]; topical ocular instillation twice daily, 40 μL to left eye, Day 7 and Day 22, CBT-009 at 0.01%, […] and 0.05% in […] phenylethyl alcohol, 10% MCT, 89.75% F6H8, comparator 0.03%)	Shelf life of the product [2]	Miscibility with light liquid paraffin oil ([3]; ratio of F6H8 to light liquid paraffin oil from 1:99 to 99:1)
	CN1[C@@H]2CC[C@H]1C[C@@H](OC(=O)C(CO)c1ccccc1)C2 (stereo partly drawn) [Atropine, atropine]	comparable	dose response in pupil size dilation was observed	pupil size dilation was observed	less than 1 year	
miscible with MCT at all ratios	CCCCCCCCC(F)(F)C(F)(F)C(F)(F)C(F)(F)C(F)(F)C(F)(F)F [F6H8, perfluorohexyloctane]					miscible with light liquid paraffin oil at all ratios
